Assay results reported in article PMC9975698, “Hyperoside alleviates toxicity of β-amyloid via endoplasmic reticulum-mitochondrial calcium signal transduction cascade in APP/PS1 double transgenic Alzheimer's disease mice” (Redox Biology, 2023).

Experiments:
[1] = system: HT22 cells; test: Cytoplasmic calcium dynamics (FLIPR Calcium 6); type: cell-based
Procedure: Intracellular Ca^2+ dynamics were determined using the FLIPR Calcium 6 Assay Kit (Molecular Devices) according to the manufacturer's instructions. Briefly, HT22 was housed at 4 × 10^4 cells per well in a black-walled and clear-bottom 96 multi-well plate (Costar, MA, USA) and treated with Calcium 6 reagent for 1 h.

[2] = Pharmacokinetics in serum after IV or IN administration; type: in vivo; conditions: 20 mg/kg, mice; for AUC(0-t) / Cmax / Tmax / k el / half-life: mouse, serum; for k el: read-out: Serum Ke (converted); for half-life: read-out: Serum t1/2 (converted)
Procedure: (§1) After tail vein injection or nasal administration, blood was collected at 5, 15 and 30 min, 1, 2, 4, 8, 12, 24, 48, 72, 120 and 168 h, for immediate centrifugation at 14,000 rpm for 5 min. The serum was harvested and stored at −20 °C until further processing. Brain tissue was collected and was thoroughly rinsed in saline to eliminate blood and blotted dry with filter paper. Each tissue sample was homogenized in saline (1:5, w/v) and stored at −20 °C until analysis. 50 μL of serum or 100 μL of brain tissue was put in a 1.5 mL EP tube, followed by the addition of 20 μL of internal standard solution (10 μM ISO). The protein was precipitated with 1 mL of ethyl acetate, vortexed for 5 min and centrifuged at 20,000 g (4 °C and 10 min). The supernatant solution was nitrogen blown to dry and re-suspended with 100 μL of 50% acetonitrile for centrifugation again. The supernatant was taken for analysis by using LC-MS/MS. HYP content was quantified using UHPLC-MS/MS system, which includes Agilent 1290 Infinity UHPLC, and Agilent 6460 Triple Quadrupole, equipped with an electrospray ionization interface used to generate positive ions for the determination of HYP. The compounds were analyzed by using the Agilent Zorbax Eclipse Plus C-18 column with a particle size of […] (flow rate: 0.35 mL/min). The mobile phase was set as follows: mobile phase A (0.1% formic acid in water) and mobile phase B (0.1% formic acid in ACN): 0–3 min, 10–30% B; 3–4 min, 70% B; 4–5 min, 30–70% B; 5–6 min, 70-10% B. The column and auto-sampler temperature were maintained at 30 °C and 4 °C, respectively. Data were analyzed by using Agilent MassHunter Workstation software B.01.03. The gas temperature was set at 300 °C with a flow rate of 11 L/min. Gases were set at 30 psi for the nebulizer, capillary, at 4000 V. For the HYP, the fragment was 170. The collision energy was set at 30; The mass transitions were as follows based on multiple reaction monitoring: m/z 464.38 → 299.9. For the Isorhamnetin (ISO), the fragment was 150. The collision energy was set at 30; The mass transitions were as follows based on multiple reaction monitoring: m/z 315.4 → 300.1, The measurements of HYP were done using the standard and linear least-squares regression curve.

[3] = system: HT22 cells; test: Real time mitochondrial membrane potential (rhodamine 123); type: cell-based; conditions: rhodamine 123-stained HT22 cells, Aβ 30 μM with HYP 20, 40, 80 μM
From the text: Disruption of RyR2 regulation in the ER mediates the most important signal transduction cascade responses associated with AD [24]. RyR2 channels are implicated in many cellular functions, particularly mitochondrial metabolism. As confirmed in previous section (Fig. 9G), the expression of mRNA for MCU was decreased in RyR2 knockdown cells. […] Therefore, the role of HYP in regulating Aβ-induced ER-mitochondrial Ca^2+ homeostasis and apoptosis were further validated. […] It was reported that mitochondrial calcium level affects cellular energy by activating oxidative metabolism, mitochondrial respiration and ATP synthesis. […] To further verify the result, the membrane potential was stained with a more sensitive dye, JC-1 (Fig. 10C). JC-1 is a dual-emission mitochondrial membrane potential sensing dye, which is accumulated and aggregated in polarized (normal) mitochondria with excitation and emission in the red spectrum at ∼590 nm. […] It is noteworthy that increased mitochondrial calcium influx can trigger apoptosis. To further explore the protective role of HYP in Aβ -induced neuronal cell death, HT22 cells were co-treated with Aβ aggregates and HYP for 24 h. The expression level of selected apoptotic markers including Bcl-2, Bax and cyto-c were detected by Western blot (Fig. 10E).

[4] = system: HT22 cells; test: Western blot of Bcl-2, Bax and cyto-c in HT22 cells; type: cell-based; conditions: HT22 cells co-treated with Aβ aggregates 30 μM and HYP, 24 h
Procedure: After HYP treatment, the cells were lysed with RIPA. Protein concentrations were determined by Bio-Rad protein assay (Bio-Rad Laboratories, CA, USA). After electrophoretic separation, the gels were blotted and stained with primary antibodies. Binding of antibodies was visualized with peroxidase-coupled secondary antibodies using ECL Western Blotting detection reagents (Invitrogen, Scotland, UK). Band intensities were quantified using ImageJ software. Data were obtained from three independent experiments.

[5] = system: Aβ oligomers, Aβ fibrils, Aβ (1–16); test: Dot blot of Aβ forms in HT22 cells; type: cell-based
Procedure: 4 μL of prepared cell or animal sample protein solutions were dotted for adsorption onto methanol-pre-activated PVDF membranes and then blocked with 5% non-fat dry milk in Tris-buffered saline and Tween 20 for 1 h. The samples were incubated overnight at 4 °C with anti-amyloid fibril primary antibody [mOC87] (Abcam, MA, USA), anti-amyloid oligomer A11 (Invitrogen, CA, USA) or purified anti-β-amyloid (1–16) antibody (clone 6E10) (Biolegend, CA, USA) (1:1000), followed by HRP-conjugated secondary antibody. Protein bands were detected using Super Signal Sensitive ECL Western Blotting Detection Reagent (Beyotime, Beijing, China) and observed using a gel imaging device (Amersham Imager 800, GE, Tokyo, Japan).

[6] = Pharmacokinetics in brain after IV or IN administration; type: in vivo; conditions: 20 mg/kg, mice; for Tmax / k el / half-life: mouse, brain; for k el: read-out: Brain Ke (converted); for half-life: read-out: Brain t1/2 (converted)
Procedure: as §1

O=c1c(O[C@@H]2O[C@H](CO)[C@H](O)[C@H](O)[C@H]2O)c(-c2ccc(O)c(O)c2)oc2cc(O)cc(O)c12 [HYP, Quercetin-3-O-β-D-galactopyranoside]
dynamic Ca2+ level induced by Aβ ([1]; HT22 cells, Aβ 30 μM + HYP 20–80 μM, calcium-containing HBSS): decreased the level of Ca^2+ in a dose dependent manner | dynamic Ca2+ level induced by Aβ ([1]; HT22 cells, Aβ 30 μM + HYP 20–80 μM, calcium-free HBSS): downregulated the Aβ -induced level of Ca^2+ in a dose-dependent manner | dynamic Ca2+ level induced by Aβ ([1]; si-RyR2 HT22 cells, aggregated Aβ 30 μM + HYP 40 μM): restored the Aβ-induced dishomeostasis of Ca^2+ in si-RyR2 HT22 cells (Fig. 9H) to a lesser extent | Serum F (AUCIN/AUCIV ratio) ([2]; IN): 23.2% | AUC(0-t) ([2]; inhaled or intranasal, IN): 5500 ± 1220 µg·h/mL | Cmax ([2]; inhaled or intranasal, IN): 300 ± 102 µg/mL | Tmax ([2]; inhaled or intranasal, IN): 30 min | k el ([2]; inhaled or intranasal, IN): 1.67e-05 s⁻¹ | half-life ([2]; inhaled or intranasal, IN): 1530 ± 752 min | AUC(0-t) ([2]; IV): 23700 ± 1740 µg·h/mL | Cmax ([2]; IV): 1160 ± 268 µg/mL | Tmax ([2]; IV): 4.8 min | k el ([2]; IV): 0.000103 s⁻¹ | half-life ([2]; IV): 111 ± 75 min | mitochondrial membrane potential, real time [3]: attenuated the decrease of membrane potential triggered by Aβ | ratio of Bax / Bcl-2 and level of cyto-c [4]: ratio of Bax / Bcl-2 was decreased with the reduction in the level of cyto-c | level of different form of Aβ ([5]; HT22 cells incubated with exogenous Aβ for 24 h): lowered the level of different form of Aβ | endogenous level of Aβ oligomers, Aβ fibrils and total Aβ (1–16) ([5]; HT22 cells without exogenous Aβ): lowered the endogenous level of Aβ Oligomers (A11), Aβ Fibrils (mOC87) and total Aβ (1–16) (6E10) | Brain Cmax ([6]; IN): 12.76 ± 1.56 ng/m | Brain F (AUCIN/AUCIV ratio) ([6]; IN): 603.72% | Brain Cmax ([6]; IV): 12.82 ± 0.40 ng/mL | Tmax ([6]; inhaled or intranasal, IN): 1 h | k el ([6]; inhaled or intranasal, IN): 5.56e-06 s⁻¹ | half-life ([6]; inhaled or intranasal, IN): 4200 ± 302 min | Tmax ([6]; IV): 2 h | k el ([6]; IV): 1.94e-05 s⁻¹ | half-life ([6]; IV): 629 ± 97.8 min
